Read-outs that look alike come from different tables or passages of the source. Values belong to the compound of their own block, whether it stands above or below them.
What was measured:
[1] = biological target: T1, OCT2 (Homo sapiens, UniProt O15244); test: Inhibition of OCT2-mediated oxaliplatin uptake in transfected MDCK-II cells (protein-free HBSS); settings: for inhibition at 30 min, 5 μM / inhibition at 30 min, 50 μM / potency estimated from few doses at 30 min: human
T1 sequence (O15244 1-555): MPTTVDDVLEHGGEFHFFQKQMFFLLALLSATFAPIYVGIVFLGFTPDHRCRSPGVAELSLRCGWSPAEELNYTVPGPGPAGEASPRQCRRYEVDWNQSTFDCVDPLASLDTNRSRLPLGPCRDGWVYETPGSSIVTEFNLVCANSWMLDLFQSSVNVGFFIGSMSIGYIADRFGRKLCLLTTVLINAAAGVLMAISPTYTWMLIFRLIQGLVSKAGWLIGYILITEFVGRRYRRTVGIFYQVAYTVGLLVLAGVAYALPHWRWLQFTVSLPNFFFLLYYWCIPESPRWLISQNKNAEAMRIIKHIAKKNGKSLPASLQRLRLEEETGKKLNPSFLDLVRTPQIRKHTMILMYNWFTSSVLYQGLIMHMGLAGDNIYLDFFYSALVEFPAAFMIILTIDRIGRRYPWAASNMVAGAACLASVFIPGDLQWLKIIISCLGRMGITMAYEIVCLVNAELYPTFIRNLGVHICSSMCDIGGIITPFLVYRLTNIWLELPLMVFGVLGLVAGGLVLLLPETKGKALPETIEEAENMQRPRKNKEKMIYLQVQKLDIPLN
Description: Fully confluent MDCK cell monolayers were transfected with either cDNA plasmids encoding the human transporter to be tested or a GFP control. […] The cells were then washed with ice-cold PBS and lysed with 50:50 acetonitrile:H2O. Intracellular content of the substrate was quantified by LC/MS/MS or a MicroBeta radiometric plate reader.

[2] = human, in vivo
[3] = biological target: T1, OCT2; settings: cited from earlier work
[4] = cited from earlier work
[5] = system: HepG2 cells; test: Anti-proliferation study (SRB assay) in HepG2 cells; settings: FIG. 10
Procedure: (§1) The potency was determined by the sulforhodamine B (SRB) assay in 96-well plates. […] Seeding density was 3000 cells/well for both cell lines.

[6] = system: MDCK cells expressing OCT2, MATE1 and MATE2K; test: LDH cytotoxicity of oxaliplatin in MDCK-II triple-transporter model; settings: for effect on oxaliplatin induced cytotoxicity in OCT2 expressing cells: buflomedil 3 and 6 μM, dolutegravir 10 μM, erlotinib 6 μM, cimetidine 6 μM, FIG. 6
Procedure: A triple-transporter model for OCT2(SLC22A2), MATE1(SLC47A1), and MATE2-K(SLC47A2) was created by transfecting fully confluent MDCK-II cell monolayers with DNA mixture containing the plasmids encoding OCT2, MATE1, and MATE-2K at concentrations of 40, 15, and 5 ng/μl, respectively. The OCT2 was expressed on the basolateral cell membrane, and MATE1 and MATE2-K were expressed on the apical side of the cells. […] The apical medium was adjusted to pH 6.7 with 25 mM of 2-(N-morpholino) ethanesulfonic acid (MES).
After removal of the media, a drug-free medium was added in both sides. After incubation 24 hours, the medium was collected, and the lactate dehydrogenase (LDH) activity in the medium was measured using an LDH cytotoxicity assay kit (G-Biosciences. St. Louis, Mo.; or Biochain, Newark, Calif.), according to the manufacturers' instructions. Cytotoxicity was evaluated by measuring the LDH activity in the medium.
Cytotoxicity was tested using the same procedure described above.

[7] = biological target: T1, OCT2; test: Inhibition of OCT2-mediated ASP+ uptake (Kido et al., Giacomini group); settings: human, cell line expressing human OCT2 (cell line not given), probe ASP+ 5 μM
[8] = biological target: T1, OCT2; test: Inhibition of OCT2-mediated metformin uptake in transfected MDCK-II cells
[9] = biological target: T1, OCT2; test: Inhibition of OCT2-mediated oxaliplatin transport in 100% human serum or HBSS containing 4% BSA (IC50,app); settings: for transporter preference in inhibiting oxaliplatin transport: serum or 4% BSA
[10] = system: cells co-expressing OCT2 and MATE1; test: Intracellular oxaliplatin content in cells co-expressing OCT2 and MATE1; format: cell-based; settings: oxaliplatin 100 μM in 4% BSA HBSS, 90 min
Description: In most naturally occurring cells, uptake transporters co-exist with efflux transporters. It is the interplay between the uptake and efflux transporters that determines the net intracellular accumulation of a substrate. One example is in the proximal tubule epithelial cells in the kidney, where the basolaterally expressed transporters, mainly OCT2, work in concert with the apically expressed MATE1 and MATE2K [5]. […] Cells with single expression of OCT2 or GFP mock were also used as a control.

[11] = Published clinical pharmacokinetic data; settings: from published Cmax and protein binding
[12] = system: HT-29 cells; test: Anti-proliferation study (SRB assay) in HT-29 cells; settings: co-treatment; FIG. 11
Procedure: as §1

[13] = biological target: T1, OCT2; test: in vitro
[14] = biological target: T1, OCT2; test: in vitro; remark: listed apart in the source
[15] = system: Balb/c mice exposed to chronic treatment with Oxaliplatin; test: Morphometry and histopathology of DRG neurons in chronic oxaliplatin neuropathy model; format: in vivo, mouse
Description: The investigator was blind to the nerve and DRG conditions for these analyses. Three animals from each group were sacrificed four days after the last oxaliplatin dose. The left sciatic nerves and the L4-L5 DRGs were harvested and processed following previously reported protocols, resin embedded and sectioned for light and electron microscope analysis. For the light microscopy analysis, 1 μm semithin sections were stained with toluidine blue and examined using a Nikon Eclipse E200 light microscope (Nikon, Firenze, Italy). For the electron microscopy analysis, ultrathin sections (80 nm) counterstained with uranyl acetate and lead citrate, were examined with a Philips CM 10 transmission electron microscope (Philips, Eindhoven, Netherlands).
The investigator was blind to the experimental conditions of the tissue for these experiments. One micron thick semithin sections stained with toluidine blue were used for morphometric examination of the DRGs from control (n=3) and oxaliplatin-treated mice (n=3). (Renn et al. Molecular Pain 2011, 7:29). Only the cells where the nucleolus was included in the section plane of 50 μm-spaced out sections were considered to avoid the overlapping of the same cell bodies and they were analyzed with computer-assisted image analysis (ImageJ, NIH) to measure the soma and nucleolus size of at least 300 DRG neurons per mouse.

[16] = system: Balb/c mice exposed to chronic treatment with Oxaliplatin; test: Dynamic Plantar Aesthesiometer Test in chronic oxaliplatin neuropathy model; format: in vivo, mouse; settings: OXA 3.5 mg/kg iv, 8 cycles ± BFMD 30 mg/kg ip + 15 mg/kg iv
Procedure: The Dynamic Plantar Aesthesiometer Test was used to determine the alterations in mechanical pain perception and their changes due to pharmacological treatment. Mice were accustomed to the device 3 days before performing the tests after a 1 hour acclimatization period followed by testing. The mechanical nociceptive threshold was assessed using a Dynamic Aesthesiometer Test (model 37450, Ugo Basile Biological Instruments, Comerio. Italy), which generated a linearly increasing mechanical force. At each time point, after the acclimatization period, a servo-controlled mechanical stimulus (a pointed metallic filament, 0.5-mm diameter) was applied to the plantar surface of the hind paw, which exerted a progressively increasing punctuate pressure, reaching up to 15 g within 15 seconds. The pressure evoking a clear voluntary hind-paw withdrawal response was recorded automatically and taken as representing the mechanical nociceptive threshold index. The mechanical threshold was always assessed alternatively on each side every 2 minutes on 3 occasions to yield a mean value. The results represent the maximal pressure (expressed in grams) tolerated by the animals. There was an upper limit cutoff of 30 seconds, after which the mechanical stimulus was automatically terminated.

[17] = system: Balb/c mice exposed to chronic treatment with Oxaliplatin; test: Cold Plate Test in chronic oxaliplatin neuropathy model; format: in vivo, mouse; settings: OXA 3.5 mg/kg iv ± BFMD 30 mg/kg ip + 15 mg/kg iv
Procedure: Cold Plate Test was used to determine the alterations in cold temperature related pain perception and their changes due to pharmacological treatment. Cold Plate Test was performed by using an apparatus (35100—Hot/Cold Plate. Ugo Basile instruments) composed by a Plexiglas cylinder and a thermostatic plate, able to reach variable temperatures. The mice were placed on the plate set at +4° C., free to move and walk. Two blinded experimenters simultaneously determine the number of pain signs (e.g. jumping, licking, etc.) in a trial of 5 minutes.

[18] = system: Balb/c mice exposed to chronic treatment with Oxaliplatin; test: Caudal nerve conduction study in chronic oxaliplatin neuropathy model; format: in vivo, mouse; settings: OXA 3.5 mg/kg iv, 8 cycles ± BFMD 30 mg/kg ip + 15 mg/kg iv
Procedure: The development of peripheral neuropathy after chronic administration of drugs was assessed by evaluating the nerve conduction velocity (NCV) along caudal and digital nerve using an electromyography apparatus (Myto2 ABN Neuro, Firenze, Italy). Caudal NCV was determined by placing a couple of recording needle electrodes at the base of the tail and a couple of stimulating needle electrodes 3.5 cm distally to the recording points. Similarly, the digital NCV was determined by placing the recording electrodes close to the ankle bone and the stimulating electrodes close to the fourth toe near the digital nerve. The intensity, duration and frequency of stimulation were set up in order to obtain optimal results. All the neurophysiological determinations were performed under standard conditions in a temperature-controlled room (22+/−2° C.) and the animal under isoflurane anesthesia along the whole procedure with continuous monitoring of vital signs.

[19] = Plasma levels of buflomedil and oxaliplatin in the chronic model; format: in vivo, mouse; settings: 15 minutes after the 8th cycle
Procedure: At baseline (before drug treatment) and at the end of treatment, caudal nerve conduction study (NCS), behavioral tests (Dynamic and Cold Plate), histopathology study were performed. Serum samples were collected at the end of treatment.

[20] = cited from earlier work; remark: listed apart in the source
[21] = MDCK-II cells transfected with human OCT2, probe oxaliplatin 10 μM

IC50 [1]: 9.71 µM | inhibition at 30 min, 5 μM [1]: 34% | inhibition at 30 min, 50 μM [1]: 83% | potency estimated from few doses at 30 min ([1]; IC50 (μM) (substrate Oxaliplatin)): 9.7 µM | Plasma peak unbound concentration Cmax,u [2]: 9600 nM | potency estimated from few doses [7]: 26.4 µM | IC50 [8]: 57.6 ± 6.9 µM | IC50 ([9]; IC50,app (μM), apparent inhibition constant in 100% human serum or HBSS containing 4% BSA, OCT2-mediated oxaliplatin uptake): 36.8 µM | IC50 ([9]; OCT2 IC50, app (μM), 100% human serum or HBSS containing 4% BSA, 20 μM or 100 μM oxaliplatin): 36.8 ± 13.6 µM
SMILES: CN/C(=N/CCSCc1nc[nH]c1C)NC#N [Cimetidine]
Inhibition % @ 20 μM (substrate ASP+) ([3]; OCT2-mediated uptake, ASP+ 5 μM in HBSS, from Kido Y et al. J Med Chem 2011): 43% | Plasma protein binding (%) ([4]; published data): 20% | effect on anti-tumor potency of oxaliplatin in HepG2 [5]: nor cimetidine | effect on oxaliplatin induced cytotoxicity in OCT2 expressing cells [6]: did not reduce oxaliplatin cytotoxicity | transporter preference in inhibiting oxaliplatin transport [9]: even more preference towards inhibiting oxaliplatin transport through MATE1

SMILES: C#Cc1cccc(Nc2ncnc3cc(OCCOC)c(OCCOC)cc23)c1 [Erlotinib]
inhibition at 30 min, 5 μM [1, 21]: 93% | inhibition at 30 min, 50 μM [1, 21]: 106% | cellular accumulation of oxaliplatin in cells co-expressing OCT2 and MATE1 [10]: reduced cellular accumulation of oxaliplatin | Mean Cmax ([4]; 150 mg po, day 24): 2120 ng/mL | Mean T1/2 ([4]; 150 mg po, day 24): 18.2 h | Mean Cmax ([4]; 150 mg po, single dose): 1140 ng/mL | Mean T1/2 ([4]; 150 mg po, single dose): 20 h | Plasma protein binding (%) ([4]; published data): 93% | Cmax ([4]; read-out: Mean Cmax, 150 mg po, day 24): 5400 nM | Cmax ([4]; read-out: Mean Cmax, 150 mg po, single dose): 2900 nM | Cmax ([4]; read-out: Plasma peak total concentration Cmax, published clinical pharmacokinetic data): 5400 nM | Plasma peak unbound concentration Cmax,u [11]: 380 nM | effect on cisplatin anti-proliferation potency in HT-29 [12]: ignorable impact on cisplatin cytotoxicity | cytotoxicity of the inhibitor itself ([6]; 6 μM, without oxaliplatin, FIG. 6B): showed cytotoxicity itself without adding oxaliplatin | effect on oxaliplatin induced cytotoxicity in OCT2 expressing cells [6]: its EC50 value could not be obtained due to an ambiguous fitting | transporter preference in inhibiting oxaliplatin transport [9]: potent in suppressing OCT1 as well as OCT2

SMILES: CCNC(=O)[C@@H]1CCCN1C(=O)[C@H](CCCNC(=N)N)NC(=O)[C@H](CC(C)C)NC(=O)[C@@H](CC(C)C)NC(=O)[C@H](Cc1ccc(O)cc1)NC(=O)[C@H](CO)NC(=O)[C@H](Cc1c[nH]c2ccccc12)NC(=O)[C@H](Cc1c[nH]cn1)NC(=O)[C@@H]1CCC(=O)N1 [Leuprolide]
IC50 [1]: 1.57 µM | inhibition at 30 min, 5 μM [1]: 76% | inhibition at 30 min, 50 μM [1]: 97% | potency estimated from few doses at 30 min [1]: 1.57 µM | Plasma peak unbound concentration Cmax,u [2]: 10 nM | potency estimated from few doses [13]: 2.8 µM | inhibition at 5 min, 5 μM [14]: 58% | inhibition at 5 min, 50 μM [14]: 91% | Inhibition % @ 20 μM (substrate ASP+) ([3]; human, 20 μM): 88% | Cmax ([4]; human, in vivo): 17 nM | Plasma protein binding (%) ([4]; human, in vivo): 46% | IC50 [8]: 3.62 µM

SMILES: O=C(O)C(=O)O.[NH-][C@@H]1CCCC[C@H]1[NH-].[Pt+2] [Oxaliplatin]
area of DRG neuron cell bodies and nucleoli (morphometry) ([15]; OXA 3.5 mg/kg iv twice a week for 4 weeks (8 cycles) ± BFMD 30 mg/kg ip + 15 mg/kg iv): significant decrease in the area | DRG histopathology (light and electron microscopy) ([15]; OXA 3.5 mg/kg iv, 8 cycles ± BFMD 30 mg/kg ip + 15 mg/kg iv): high incidence of multinucleolated cell bodies with eccentric nucleoli | mechanical allodynia, Dynamic Aesthesiometer Test at the end of treatment [16]: development of mechanical allodynia with a reduction in the latency until withdrawal | Cold Plate Test pain signs after third injection ([17]; 3 cycles): significant increase in pain signs versus CTRL and all groups of treatment | Cold Plate Test pain signs at the end of treatment (eight injections) ([17]; 8 cycles): significant increase in pain signs versus CTRL and BFMD | caudal nerve action potential amplitude [18]: significant decrease in caudal amplitude | caudal nerve conduction velocity [18]: significant reduction in caudal nerve conduction velocity vs. control mice | pharmacokinetic interaction between BFMD and OXA (plasma levels) [19]: unaffected by the presence of BFMD | patients with severe PN (Grade 3 or higher) ([20]; cumulative doses 510-765 mg/m^2): up to 10% | patients developing severe PN ([20]; cumulative doses above 1000 mg/m^2, Argriou 2012): approximately 50%

Reference: patent US11197862B2, “Methods of preventing toxicity of platinum drugs” (XOMICS BIOPHARMA, INC., priority 2015, dated 2021)
